Assay results as given in patent US8859060B2, “Protective film of polarizer, polarizer and liquid crystal display device” (FUJIFILM Corporation, priority 2009, dated 2014).
Several values for one entry are separate records, joined by “and”; a condition that tells them apart may be missing. Identical values can stand only once.

Assay: Acid dissociation constant by alkali titration in THF/water=6/4
Assay type: physicochemical
Details: mixed solvent of THF/water=6/4 by volume at 25° C.
Experimental: Preferably, the acid dissociation constant of the organic acid in a mixed solvent of THF/water=6/4 by volume at 25° C. is from 2.5 to 7, more preferably from 2.5 to 6.5, even more preferably from 3 to 5.

Q: With `O=C(O)C=Cc1ccccc1` [Cinnamic acid, cinnamic acid, reference compound] as the compound, how does the Acid dissociation constant read?
A: Its Acid dissociation constant is 4.7.

Q: Which Acid dissociation constant does the source give for `O=C(O)CC(O)(CC(=O)O)C(=O)O` [Citric acid, citric acid, reference compound] here?
A: Its Acid dissociation constant is 4.0.

Q: With `O=C1NC(=O)N(Cc2ccccc2)C(=O)C1c1ccccc1` (stereo not shown) [Organic acid A] as the compound, how does the Acid dissociation constant read?
A: The Acid dissociation constant was 4.0 and 3.0.

Q: For `CCC(Oc1ccc(C(C)(C)CC)cc1C(C)(C)CC)C(=O)Nc1cccc(C(=O)O)c1` (stereo not shown) [Organic acid B], which Acid dissociation constant is on record?
A: Its Acid dissociation constant is 6.6.

Q: For `Nc1c(F)c(F)c(C(=O)O)c(F)c1F` [Organic acid C], which Acid dissociation constant is on record?
A: Its Acid dissociation constant is 5.0.

Q: With `CC(=O)Nc1c(I)cc(I)c(C(=O)O)c1I` [Organic acid D] as the compound, how does the Acid dissociation constant read?
A: The Acid dissociation constant was 4.4.

Q: Which Acid dissociation constant does the source give for `CCC(C)(C)c1ccc(OCCCC(=O)O)c(C(C)(C)CC)c1` [Organic acid F, reference compound] here?
A: Its Acid dissociation constant is 7.3.

Q: With `O=C1NS(=O)(=O)c2ccccc21` [Organic acid H] as the compound, how does the Acid dissociation constant read?
A: Its Acid dissociation constant is 2.6.

Q: For `O=C(O)c1ccc(C(=O)O)cc1` [Terephthalic acid, reference compound], which Acid dissociation constant is on record?
A: Its Acid dissociation constant is 4.5.

Assay: Solubility in water at 25° C.
Details: not given

Q: Which Solubility to water does the source give for `O=C(O)c1ccc(C(=O)O)cc1` [Terephthalic acid, reference compound] here?
A: Its Solubility to water is “More than 1 wt %”.
